Like-named read-outs stand apart in the source and are kept apart here.
Test system: KARN cells (Jurkat 2C4)
Assay: cells
Type: cell-based
Outline: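 Jurkat 2C4 (KARN) cells dosed with test compounds up to 40 μM final, 0.4% DMSO, overnight at 5% CO2; luciferase read by Steady-Glo luminescence after 10 min at room temperature. DMSO set as 0% and 2 μM SAHA as 100% induction; 4-parameter fit of percent activation.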

[1] = Homo sapiens, Jurkat, read-out: Karn EC50 (nM) 0.1% NHS, 0.1% normal human serum
[2] = Homo sapiens, Jurkat, read-out: Karn EC50 (nM) 5% NHS, 5% normal human serum
[3] = read-out: Karn EC50 (nM) 0.1% NHS, 0.1% normal human serum
[4] = read-out: Karn EC50 (nM) 5% NHS, 5% normal human serum

| SMILES | EC50 [1] | EC50 [2] | EC50 [3] | EC50 [4] |
| --- | --- | --- | --- | --- |
| CCC(=O)CCCCC[C@H](NC(=O)[C@H]1CC12CCN(C)CC2)c1ncc(-c2cc(OC)c3ccccc3n2)[nH]1 [Compound 170] | 436 nM | 1160 nM | – | – |
| CCC(=O)CCCCC[C@H](NC(=O)C1CN(C)C1)c1[nH]c(-c2ccc(F)cc2)nc1Br [Compound 65, N-{(1S)-1-[4-bromo-2-(4-fluorophenyl)-1H-imidazol-5-yl]-7-oxononyl}-1-methylazetidine-3-carboxamide] | 2190 nM | 4390 nM | – | – |
| CCC(=O)CCCCC[C@H](NC(=O)[C@H]1CC12CCN(C)CC2)c1ncc(-c2ccc3cnc(OC)cc3c2)[nH]1 [Compound 113] | 58 nM | 107 nM | – | – |
| CCC(=O)CCCCC[C@H](NC(=O)[C@H]1CC12CCN(CC)CC2)c1ncc(-c2ccc3c(=O)n(C4CC4)ccc3c2)[nH]1 [Compound 150] | 114 nM | 135 nM | – | – |
| CCC(=O)CCCCC[C@H](NC(=O)[C@H]1CC12CCN(C)CC2)c1ncc(-c2ccc3ncc(Cl)cc3c2)[nH]1 [Compound 140] | 113 nM | 155 nM | – | – |
| CCC(=O)CCCCC[C@H](N)c1ncc(-c2cc3ccc(C)nc3cc2OC)[nH]1 [Compound 209, (S)-9-amino-9-(5-(7-methoxy-2-methylquinolin-6-yl)-1H-imidazol-2-yl)nonan-3-one] | 1440 nM | 4950 nM | – | – |
| CCC(=O)CCCCC[C@H](NC(=O)[C@H]1CC12CCN(C(C)C)CC2)c1ncc(-c2ccc3nc(C4CC4)ccc3c2)o1 [Compound 116] | 630 nM | 617 nM | – | – |
| CCC(=O)CCCCC[C@H](NC(=O)C1CC2(CCN(C)CC2)C1)c1ncc(-c2ccc3nn(C)cc3c2)[nH]1 [Compound 145] | 641 nM | 746 nM | – | – |
| CCC(=O)CCCCC[C@H](NC(=O)[C@H]1CC12CCN(C)CC2)c1nnc(-c2cc3ccc(C)nc3cc2OC)o1 [Compound 191] | 366 nM | 343 nM | – | – |
| C=CCN1CCC2(CC1)C[C@@H]2C(=O)N[C@@H](CCCCCC(=O)CC)c1ncc(-c2cccc3c2C2CCC3N2CC=C)[nH]1 (stereo partly drawn) [Compound 180, (1S)—N-{(1S)-7-oxo-1-[5-(9-prop-2-en-1-yl-1,2,3,4-tetrahydro-1,4-epiminonaphthalen-5-yl)-1H-imidazol-2-yl]nonyl}-6-prop-2-en-1-yl-6-azaspiro[2.5]octane-1-carboxamide] | 371 nM | 666 nM | – | – |
| CCC(=O)CCCCC[C@H](NC(=O)C1=NOC2(CCN(C)CC2)C1)c1ncc(-c2ccc3nn(C)cc3c2)[nH]1 [Compound 154] | 518 nM | 476 nM | – | – |
| CCC(=O)CCCCC[C@H](NC(=O)C1=NOC2(CCN(C)CC2)C1)c1ncc(-c2ccc3nc(C4CC4)ccc3c2)o1 [Compound 135] | 1120 nM | 1380 nM | – | – |
| CCC(=O)CCCCC[C@H](NC(=O)[C@H]1CC12CCN(C)CC2)c1[nH]c(-c2ccc(F)cc2)nc1C#N [Compound 76] | 233 nM | 409 nM | – | – |
| CCC(=O)CCCCC[C@H](NC(=O)C1CC12CC1CCC(C2)N1C)c1ncc(-c2ccc3ncccc3c2)[nH]1 (single isomer, unassigned) [Compound 166] | 469 nM | 591 nM | – | – |
| CCC(=O)CCCCC[C@H](NC(=O)[C@H]1CC12CCN(CC)CC2)c1ncc(-c2ccc(-c3cnc(C4CC4)cn3)cc2)o1 [Compound 129, (1S)—N-[(1S)-1-{5-[4-(5-cyclopropylpyrazin-2-yl)phenyl]-1,3-oxazol-2-yl}-7-oxononyl]-6-ethyl-6-azaspiro[2.5]octane-1-carboxamide] | 828 nM | 1240 nM | – | – |
| CCN1CCC2(CC1)C[C@@H]2C(=O)N[C@@H](CCCCCC(=O)CC1CC1)c1ncc(-c2ccc(F)cc2)[nH]1 [Compound 201] | 359 nM | 403 nM | – | – |
| CCC(=O)CCCCC[C@H](NC(=O)C1=NOC2(CCN(C(C)C)CC2)C1)c1ncc(-c2ccc3nc(C4CC4)ccc3c2)o1 [Compound 136] | 2500 nM | – | – | – |
| CCC(=O)CCCCC[C@H](NC(=O)C1CC12CCN(C)C(C)(C)C2)c1ncc(-c2ccc3nc(C)ccc3c2)[nH]1 (single isomer, unassigned) [Compound 130] | – | – | 503 nM | 598 nM |
| CCC(=O)CCCCC[C@H](NC(=O)[C@H]1CC12CCN(C)CC2)c1ncc(-c2cnc3cccnc3c2)[nH]1 [Compound 67] | 6480 nM | 6350 nM | – | – |

| SMILES | EC50 [1] | EC50 [2] | EC50 [3] | EC50 [4] |
| --- | --- | --- | --- | --- |
| CCC(=O)CCCCC[C@H](NC(=O)[C@H]1CC12CCN(C)CC2)c1ncc(-c2ccc3c(=O)n(C)ccc3c2)o1 [Compound 137] | 434 nM | 443 nM | – | – |
| CCC(=O)CCCCC[C@H](NC(=O)C1CCC2(CC1)CN(C)C2)c1ncc(-c2ccc3nn(C)cc3c2)[nH]1 [Compound 156] | 1360 nM | 1360 nM | – | – |
| CCC(=O)CCCCC[C@H](NC(=O)C1CC2(C1)CN(C)C2)c1ncc(-c2ccc3nn(C)cc3c2)[nH]1 [Compound 147] | 3580 nM | 2850 nM | – | – |
| CCC(=O)CCCCC[C@H](NC(=O)C1=NOC2(CCN(CC3CC3)CC2)C1)c1ncc(-c2cc3ccc(C)nc3cc2OC)[nH]1 [Compound 219] | 78 nM | 101 nM | – | – |
| CCC(=O)CCCCC[C@H](NC(=O)[C@H]1CC12CCN(CC)CC2)c1ncc(-c2ccc3nc(C4CC4)ccc3c2)o1 [Compound 114] | 207 nM | 220 nM | – | – |
| CCN1CCC2(CC1)C[C@@H]2C(=O)N[C@@H](CCCCCC(=O)CC1CC1)c1ncc(-c2cc3ccc(C)nc3cc2OC)o1 [Compound 167] | 122 nM | 253 nM | – | – |
| CCC(=O)CCCCC[C@H](NC(=O)[C@H]1CC12CCN(CC1CC1)CC2)c1ncc(-c2cc3ccc(=O)n(C)c3cc2OC)o1 [Compound 199] | 62 nM | 83 nM | – | – |
| CCC(=O)CCCCC[C@H](NC(=O)[C@H]1CC[C@]2(CC1)OC(=O)c1ncccc12)c1ncc(-c2ccc3nc(C4CC4)ccc3c2)o1 [Compound 122] | 1130 nM | 2840 nM | – | – |
| CCC(=O)CCCCC[C@H](NC(=O)[C@H]1CC12CCN(C)CC2)c1ncc(-c2cc(OC)ncc2F)o1 [Compound 220] | 3810 nM | 3930 nM | – | – |
| CCC(=O)CCCCC[C@H](NC(=O)[C@H]1CC12CCN(C)CC2)c1ncc(-c2ccc3nc(C)cc(Cl)c3c2)[nH]1 [Compound 174] | 67 nM | 82 nM | – | – |
| CCC(=O)CCCCC[C@H](NC(=O)[C@H]1CC12CCN(CC1CC1)CC2)c1ncc(-c2ccc3nc(C4CC4)ccc3c2)o1 [Compound 115] | 239 nM | 209 nM | – | – |
| CCC(=O)CCCCC[C@H](NC(=O)[C@H]1CC12CCN(C)CC2)c1nc(F)c(-c2cc3ccccc3nc2OC)[nH]1 [Compound 75] | 275 nM | 801 nM | – | – |
| CCC(=O)CCCCC[C@H](NC(=O)[C@H]1CC12CCN(CC)CC2)c1ncc(-c2cc3nn(C)cc3cc2OC)o1 [Compound 189] | 282 nM | 300 nM | – | – |
| CCC(=O)CCCCC[C@H](NC(=O)[C@H]1CC12CCN(CC)CC2)c1ncc(-c2ccc(-c3cnc(C4CC4)nc3)cc2)o1 [Compound 161] | 1370 nM | 1460 nM | – | – |
| CCC(=O)CCCCC[C@H](NC(=O)[C@H]1CC12CCN(C)CC2)c1ncc(-c2cc3ccccc3nc2OC)o1 [Compound 77] | – | – | 194 nM | 311 nM |
| CCC(=O)CCCCC[C@H](NC(=O)[C@H]1CC12CCN(CC)CC2)c1ncc(-c2ccc3c(=O)n(CC)ccc3c2)o1 [Compound 162] | 257 nM | 305 nM | – | – |
| C=CCN1CCC2(CC1)C[C@@H]2C(=O)N[C@@H](CCCCCC(=O)CC)c1ncc(-c2ccc3c(c2)C2CCC3N2CC=C)[nH]1 (stereo partly drawn) [Compound 179, (1S)—N-{(1S)-7-oxo-1-[5-(9-prop-2-en-1-yl-1,2,3,4-tetrahydro-1,4-epiminonaphthalen-6-yl)-1H-imidazol-2-yl]nonyl}-6-prop-2-en-1-yl-6-azaspiro[2.5]octane-1-carboxamide] | 2410 nM | 2390 nM | – | – |
| COc1cc2nc(C)ccc2cc1-c1cnc([C@H](CCCCCC(=O)CC2CC2)NC(=O)[C@H]2CC23CCN(C)CC3)o1 [Compound 195, (1S)—N-{(1S)-8-cyclopropyl-1-[5-(7-methoxy-2-methylquinolin-6-yl)-1,3-oxazol-2-yl]-7-oxooctyl}-6-methyl-6-azaspiro[2.5]octane-1-carboxamide] | 163 nM | 216 nM | – | – |
